From US8084649B2, “Herbicides” (Syngenta Crop Protection, inc., priority 2007, dated 2011)

Assays:
Format in all cases: in vivo
Avena fatua (AVEFA) [1] = assay: Pre-emergence herbicidal activity, glasshouse pot test; details: Avena fatua, 480 h, rate 500 g/ha, evaluated after 20 days, read-out: Pre-emergence activity, AVEFA (100=total damage to plant; 0=no damage to plant)
Procedure: (§1) Monocotyledonous and dicotyledonous test plants were sown in sterilised standard soil in pots. After cultivation for one day (pre-emergence) or after 10 days cultivation (post-emergence) under controlled conditions in a glasshouse, the plants were sprayed with an aqueous spray solution derived from the formulation of the technical active ingredient in 0.6 ml acetone and 45 ml formulation solution containing 10.6% Emulsogen EL (Registry number 61791-12-6), 42.2% N-methylpyrrolidone, 42.2% dipropylene glycol monomethyl ether (Registry number 34590-94-8) and 0.2% X-77 (Registry number 11097-66-8). The test plants were then grown in a greenhouse under optimum conditions until, 14 or 15 days later for post-emergence and 20 days for pre-emergence, the test was evaluated (100=total damage to plant; 0=no damage to plant). Alopecurus myosuroides (ALOMY), Avena fatua (AVEFA), Lolium perenne (LOLPE), Setaria faberi (SETFA), Digitaria sanguinalis (DIGSA), Echinochloa crus-galli (ECHCG) Pre-Emergence Activity

Lolium perenne (LOLPE) [2] = assay: as above; details: Lolium perenne, 480 h, rate 500 g/ha, evaluated after 20 days, read-out: Pre-emergence activity, LOLPE (100=total damage to plant; 0=no damage to plant)
Procedure: as §1

[3] = tested on: Echinochloa crus-galli (ECHCG); assay: as above; details: Echinochloa crus-galli, 480 h, rate 500 g/ha, evaluated after 20 days, read-out: Pre-emergence activity, ECHCG (100=total damage to plant; 0=no damage to plant)
Procedure: as §1

[4] = tested on: Digitaria sanguinalis (DIGSA); assay: as above; details: Digitaria sanguinalis, 480 h, rate 500 g/ha, evaluated after 20 days, read-out: Pre-emergence activity, DIGSA (100=total damage to plant; 0=no damage to plant)
Procedure: as §1

Setaria faberi (SETFA) [5] = assay: as above; details: Setaria faberi, 480 h, rate 500 g/ha, evaluated after 20 days, read-out: Pre-emergence activity, SETFA (100=total damage to plant; 0=no damage to plant)
Procedure: as §1

[6] = tested on: Alopecurus myosuroides (ALOMY); assay: as above; details: Alopecurus myosuroides, 480 h, rate 500 g/ha, evaluated after 20 days, read-out: Pre-emergence activity, ALOMY (100=total damage to plant; 0=no damage to plant)
Procedure: as §1

Avena fatua (AVEFA) [7] = assay: Post-emergence herbicidal activity, glasshouse pot test; details: Avena fatua, evaluated after 14 or 15 days, read-out: Post-emergence activity, AVEFA (100=total damage to plant; 0=no damage to plant); for pest or weed control at 125 g/ha: rate 125 g/ha
Procedure: as §1, with “Post-Emergence” for “Pre-Emergence”

Lolium perenne (LOLPE) [8] = assay: as above; details: Lolium perenne, evaluated after 14 or 15 days, read-out: Post-emergence activity, LOLPE (100=total damage to plant; 0=no damage to plant); for pest or weed control at 125 g/ha: rate 125 g/ha
Procedure: as §1, with “Post-Emergence” for “Pre-Emergence”

[9] = tested on: Digitaria sanguinalis (DIGSA); assay: as above; details: Digitaria sanguinalis, evaluated after 14 or 15 days, read-out: Post-emergence activity, DIGSA (100=total damage to plant; 0=no damage to plant); for pest or weed control at 125 g/ha: rate 125 g/ha
Procedure: as §1, with “Post-Emergence” for “Pre-Emergence”

Setaria faberi (SETFA) [10] = assay: as above; details: Setaria faberi, evaluated after 14 or 15 days, read-out: Post-emergence activity, SETFA (100=total damage to plant; 0=no damage to plant); for pest or weed control at 125 g/ha: rate 125 g/ha
Procedure: as §1, with “Post-Emergence” for “Pre-Emergence”

[11] = tested on: Alopecurus myosuroides (ALOMY); assay: as above; details: Alopecurus myosuroides, evaluated after 14 or 15 days, read-out: Post-emergence activity, ALOMY (100=total damage to plant; 0=no damage to plant); for pest or weed control at 125 g/ha: rate 125 g/ha
Procedure: as §1, with “Post-Emergence” for “Pre-Emergence”

[12] = tested on: Echinochloa crus-galli (ECHCG); assay: as above; details: Echinochloa crus-galli, evaluated after 14 or 15 days, read-out: Post-emergence activity, ECHCG (100=total damage to plant; 0=no damage to plant); for pest or weed control at 125 g/ha: rate 125 g/ha
Procedure: as §1, with “Post-Emergence” for “Pre-Emergence”

SMILES	pest or weed control at 500 g/ha (Avena fatua (AVEFA) [1])	pest or weed control at 500 g/ha (Lolium perenne (LOLPE) [2])	pest or weed control at 500 g/ha [3]	pest or weed control at 500 g/ha [4]	pest or weed control at 500 g/ha (Setaria faberi (SETFA) [5])	pest or weed control at 500 g/ha [6]	pest or weed control at 125 g/ha (Avena fatua (AVEFA) [7])	pest or weed control at 125 g/ha (Lolium perenne (LOLPE) [8])	pest or weed control at 125 g/ha [9]	pest or weed control at 125 g/ha (Setaria faberi (SETFA) [10])	pest or weed control at 125 g/ha [11]	pest or weed control at 125 g/ha [12]	pest or weed control at 500 g/ha (Avena fatua (AVEFA) [7]; rate 500 g/ha)	pest or weed control at 500 g/ha (Lolium perenne (LOLPE) [8]; rate 500 g/ha)	pest or weed control at 500 g/ha ([12]; rate 500 g/ha)	pest or weed control at 500 g/ha ([9]; rate 500 g/ha)	pest or weed control at 500 g/ha (Setaria faberi (SETFA) [10]; rate 500 g/ha)	pest or weed control at 500 g/ha ([11]; rate 500 g/ha)
CCC(=O)OC1=C(c2c(CC)cc(C)cc2CC)C(=O)CC2(CCOCC2)C1 [Compound P2]	100%	100%	100%	100%	100%	100%	90%	80%	100%	70%	80%	–	–	–	–	–	–	–
CCc1cc(C)cc(CC)c1C1=C(OC(=O)CC(C)(C)C)CC2(CCOCC2)CC1=O [Compound P6]	90%	100%	70%	100%	70%	100%	80%	10%	30%	0%	60%	–	–	–	–	–	–	–
CCCCCCC(=O)OC1=C(c2c(CC)cc(C)cc2CC)C(=O)CC2(CCOCC2)C1 [Compound P10]	100%	100%	100%	100%	100%	100%	100%	90%	80%	70%	100%	–	–	–	–	–	–	–
CCCC(CC)C(=O)OC1=C(c2c(CC)cc(C)cc2CC)C(=O)CC2(CCOCC2)C1 (stereo not drawn) [Compound P15]	90%	100%	60%	90%	70%	0%	70%	0%	70%	40%	10%	–	–	–	–	–	–	–
CCc1cc(C)cc(CC)c1C1=C(OS(=O)(=O)CC)CC2(CCOCC2)CC1=O [Compound P28]	30%	80%	10%	70%	70%	80%	10%	0%	10%	0%	0%	–	–	–	–	–	–	–
C#CCOC1=C(c2c(CC)cc(C)cc2CC)C(=O)CC2(CCOCC2)C1 [Compound P31, 9-(2,6-diethyl-4-methylphenyl)-10-prop-2-ynyloxy-3-oxaspiro[5.5]undec-9-en-8-one]	100%	100%	100%	100%	90%	100%	70%	50%	20%	60%	70%	–	–	–	–	–	–	–
C=CCOC1=C(c2c(CC)cc(C)cc2CC)C(=O)CC2(CCOCC2)C1 [Compound P34]	70%	100%	30%	–	30%	100%	0%	0%	30%	0%	0%	0%	–	–	–	–	–	–
CCOCOC1=C(c2c(CC)cc(C)cc2CC)C(=O)CC2(CCOCC2)C1 [Compound P35]	100%	100%	–	–	100%	100%	100%	90%	50%	50%	100%	100%	–	–	–	–	–	–
CCCOC1=C(c2c(CC)cc(C)cc2CC)C(=O)CC2(CCOCC2)C1 [Compound P41]	10%	0%	40%	90%	10%	70%	10%	0%	50%	0%	10%	–	–	–	–	–	–	–
CCCCCCCCCCCCCC(=O)OC1=C(c2c(CC)cc(C)cc2CC)C(=O)CC2(CCOCC2)C1 [Compound P42]	90%	100%	100%	–	–	100%	40%	50%	30%	50%	60%	30%	–	–	–	–	–	–
CCCCCCCCCC(=O)OC1=C(c2c(CC)cc(C)cc2CC)C(=O)CC2(CCOCC2)C1 [Compound P43]	100%	100%	100%	–	–	100%	100%	80%	70%	70%	100%	70%	–	–	–	–	–	–
CCc1cc(C)cc(CC)c1C1=C(O)CC(C2CCCO2)CC1=O (stereo not drawn) [Compound T8]	80%	100%	100%	–	100%	100%	–	–	–	–	–	–	90%	100%	100%	90%	90%	100%
